In assay [1] the test system is up-regulation of ICAM-1 (CD54) by IFNγ in A549 lung epithelial cells. The assay can be described thus: A549 Epithelial Line Stimulated with IFNγ (ICAM-1 surface expression, FACS). The format is cell-based, human. As to conditions: ICAM-1 expression by FACS, read-out: IC50, Example 43. From the text:
The activity of the compounds of the invention may additionally be characterized by assaying the effect of the 2,4-substituted pyrimidinediamine compounds described herein on A549 lung epithelial cells and U937 cells. A549 lung epithelial cells and U937 cells up-regulate ICAM-1 (CD54) surface expression in response to a variety of different stimuli. Therefore, using ICAM-1 expression as readout, test compound effects on different signaling pathways can be assessed in the same cell type. Stimulation with IL-1β through the IL-1β receptor activates the TRAF6/NFκB pathway resulting in up-regulation of ICAM-1. IFNγ induces ICAM-1 up-regulation through activation of the JAK1/JAK2 pathway. The up-regulation of ICAM-1 can be quantified by flow cytometry across a compound dose curve and EC50, values are calculated. An exemplary assays of this type are described in greater detail in Examples 43 and 44
A549 lung epithelial cells up-regulate ICAM-1 (CD54) surface expression in response to a variety of different stimuli. Therefore, using ICAM-1 expression as readout, compound effects on different signaling pathways can be assessed in the same cell type. IFNγ up-regulates ICAM-1 through activation of the JAK/Stat pathway. In this example, the up-regulation of ICAM-1 by IFNγ was assessed.
The A549 lung epithelial carcinoma cell line originated from the American Type Culture Collection. Routine culturing was with F12K media (Mediatech Inc., Lenexa, KS, Cat. No. 10-025-CV) with 10% fetal bovine serum, 100 I.U. penicillin and […] streptomycin (complete F12k media). Cells were incubated in a humidified atmosphere of 5% CO2 at 37° C. Prior to use in the assay, A549 cells were washed with PBS and trypsinized (Mediatech Inc., Cat. No. 25-052-CI) to lift the cells. The trypsin cell suspension was neutralized with complete F12K media and centrifuged to pellet the cells. The cell pellet was resuspended in complete F12K media at a concentration of 2.0×10^5/mL. Cells were seeded at 20,000 per well, 100 μL total volume, in a flat bottom tissue culture plate and allowed to adhere overnight.
On day two, A549 cells were pre-incubated with a 2,4-substituted pyrimidinediamine test compound or DMSO (control) (Sigma-Aldrich, St. Louis, MO, Catalog No. D2650) for 1 hour. The cells were then stimulated with IFNγ (75 ng/mL) (Peprotech Inc., Rocky Hill, NJ, Cat. No. 300-02) and allowed to incubate for 24 hours. The final test compound dose range was 30 μM to 14 nM in 200 μL F12K media containing 5% FBS, 0.3% DMSO.
On day three, the cell media was removed and the cells were washed with 200 μL PBS (phosphate buffered saline). Each well was trypsinized to dissociate the cells, then neutralized by addition of 200 μL complete F12K media. Cells were pelleted and stained with an APC conjugated mouse anti-human ICAM-1 (CD54) (BD Pharmingen, San Diego, CA, Catalog #559771) antibody for 20 minutes at 4° C. Cells were washed with ice cold FACS buffer (PBS+2% FBS) and surface ICAM-1 expression was analyzed by flow cytometry. Detection was performed using a BD LSR I System Flow Cytometer, purchased from BD Biosciences of San Jose, California Events were gated for live scatter and the geometric mean was calculated (Becton-Dickinson CellQuest software version 3.3, Franklin Lakes, NJ). Geometric means were plotted against the compound concentration to generate a dose response curve.
On the technique in general: Flow cytometry measures light scatter and fluorescence of single cells or particles in a stream.

Assay [2] concerns IL-4 stimulated expression of CD23 in human Ramos B cells (JAK-1 and JAK-3). As to the kind of experiment: Assay for Ramos B-Cell Line Stimulated with IL-4 (CD23 upregulation, FACS). The format is cell-based. As to conditions: Ramos B-cell line stimulated with IL-4, CD23 expression by FACS, read-out: IC50, Example 41. Put shortly: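 Compound effect on IL-4-driven JAK1/JAK3 signalling is gauged as CD23 surface expression, measured by FACS after 20-24 h of stimulation with IL-4 at 50 units/mL final. A 1 h compound pre-treatment at 37 °C precedes stimulation, and IC50 is derived from the results.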

The mark [3] stands for this setting: A549 epithelial line stimulated with IFNγ.
Setting [4] is: Homo sapiens, A549, A549 epithelial line stimulated with IFNγ.

Where two headings read alike, the source gives them in different places.

What is called IC50 is the concentration at which inhibition is half-maximal. Take `CN1CCN(S(=O)(=O)c2cccc(Nc3ncc(F)c(Nc4cccc(OCC#N)c4)n3)c2)CC1` [Compound I-5, N4-(3-Cyanomethoxy)phenyl-5-fluoro-N2-[3-(4-methylpiperazin-1-yl)sulfonyl]phenyl-2,4-pyrimidinediamine]: the IC50 in assay [1] (setting [3]) came out at 29.9 µM; in assay [2], 1.65 µM.
On the same counts, the results for `CN1CCN(S(=O)(=O)c2ccc(Nc3ncc(F)c(Nc4cccc(OCC#N)c4)n3)cc2)CC1` [Compound I-6, N4-(3-Cyanomethoxy)phenyl-5-fluoro-N2-[4-(4-methylpiperazin-1-yl)sulfonyl]phenyl-2,4-pyrimidinediamine] are 21 µM and 0.522 µM.
As for `Cc1cc(Nc2nc(Nc3ccc(S(=O)(=O)N4CCN(C)CC4)cc3)ncc2F)cc(C)c1OCC#N` [Compound I-40, N4-(4-Cyanomethoxy-3,5-dimethylphenyl)-5-fluoro-N2-[4-(4-methylpiperazin-1-yl)sulfonylphenyl]-2,4-pyrimidinediamine], the IC50 is 31 µM in assay [1] (setting [4]) and 0.308 µM in assay [2] (Homo sapiens, Ramos).
For the compound `N#CCOc1ccc(Nc2nc(Nc3ccc(S(N)(=O)=O)cc3)ncc2F)cc1Cl` [Compound I-41, N2-(4-Aminosulfonylphenyl)-N4-(3-chloro-4-cyanomethoxyphenyl)-5-fluoro-2,4-pyrimidinediamine], the half-inhibitory concentration (IC50) came out at 10.2 µM in assay [1] (setting [4]) and 0.0374 µM in assay [2] (Homo sapiens, Ramos).
For the compound `CN1CCN(S(=O)(=O)c2ccc(Nc3ncc(F)c(Nc4ccc(CC#N)cc4)n3)cc2)CC1` [III-6, N4-(4-Cyanomethyl)phenyl-5-fluoro-N2-[4-(4-methylpiperazin-1-yl)sulfonyl]phenyl-2,4-pyrimidinediamine], the IC50 in assay [1] (setting [3]) amounted to 30.7 µM; in assay [2], 0.781 µM.

The values above are taken from patent publication US11827628B2, “Compositions and methods for inhibition of the JAK pathway” (Rigel Pharmaceuticals, Inc., priority 2005, dated 2023).
